Where “and” joins values, the source holds several entries; their conditions need not be identical. Equal entries are not always repeated.
Key:
[1] = 101 kPa, Liquid
[2] = refractive index (Na D-line) (dimensionless); details: 298.15 K; 101.33 kPa; Liquid
[3] = refractive index (Na D-line) (dimensionless); xn = mol fraction of the nth substance listed; details: 298.15 K, 101 kPa, Liquid
[4] = xn = mol fraction of the nth substance listed; details: 101 kPa, Liquid

COCCOC [1,2-dimethoxyethane]
[1]
Details	mass density [kg/m3]
298.15 K	864.47
308.15 K	853.47
318.15 K	842.27

Details	refractive index
[2]	1.379

COCCOC [1,2-dimethoxyethane] + CCCCn1cc[n+](C)c1.F[P-](F)(F)(F)(F)F
[3]
Details	refractive index
x2 = 0	1.379
x2 = 0.0041	1.3781
x2 = 0.0125	1.3798
x2 = 0.0416	1.3859
x2 = 0.1055	1.3926
x2 = 0.1219	1.3941
x2 = 0.2474	1.4009
x2 = 0.3744	1.4043
x2 = 0.4937	1.4062
x2 = 0.7092	1.4076
x2 = 0.9329	1.4087

mass density [kg/m3], [4]
Details	x2 = 0	x2 = 0.0125	x2 = 0.0416	x2 = 0.1055	x2 = 0.1219	x2 = 0.2474	x2 = 0.3744	x2 = 0.4937	x2 = 0.7092	x2 = 0.9329
298.15 K	864.47	879.28	912.09	976.53	991.51	1089.14	1164.22	1219.89	1296.36	1353.78
308.15 K	853.47	868.36	901.37	966.23	981.31	1079.57	1155.09	1211.03	1287.72	1345.27
318.15 K	842.27	857.25	890.47	955.79	971	1069.97	1145.98	1202.22	1279.25	1336.85

CCCCn1cc[n+](C)c1.F[P-](F)(F)(F)(F)F [1-butyl-3-methylimidazolium hexafluorophosphate]
[1]
Details	mass density [kg/m3]
298.15 K	1367.88
308.15 K	1359.33
318.15 K	1350.87

Details	refractive index
[2]	1.4089 and 1.4058

CCCCn1cc[n+](C)c1.F[P-](F)(F)(F)(F)F [1-butyl-3-methylimidazolium hexafluorophosphate] + COCCO
[3]
Details	refractive index
x1 = 0.0037	1.4006
x1 = 0.0078	1.401
x1 = 0.012	1.4013
x1 = 0.0354	1.403
x1 = 0.0801	1.405
x1 = 0.1468	1.4065
x1 = 0.2542	1.4078
x1 = 0.396	1.4083
x1 = 0.6104	1.4086
x1 = 0.8127	1.4086
x1 = 0.8961	1.4089
x1 = 0.9345	1.409
x1 = 0.9749	1.409
x1 = 1	1.4089

mass density [kg/m3], [4]
Details	298.15 K	308.15 K	318.15 K
x1 = 0.0037	964.55	962.53	945.96
x1 = 0.0078	969.43	967.34	950.88
x1 = 0.012	974.36	972.19	955.82
x1 = 0.0354	1000.13	997.66	981.7
x1 = 0.0801	1042.78	1039.97	1024.48
x1 = 0.1468	1094.24	1091.12	1076.09
x1 = 0.2542	1157.35	1153.41	1139.53
x1 = 0.396	1219.08	1213.6	1201.72
x1 = 0.6104	1284.64	1277.88	1267.48
x1 = 0.8127	1328.13	1320.65	1311.1
x1 = 0.8961	1344.77	1336.68	1327.9
x1 = 0.9345	1352.85	1344.49	1336
x1 = 0.9749	1361.9	1353.35	1344.99
x1 = 1	1367.88	1359.33	1350.87

CCCCn1cc[n+](C)c1.F[P-](F)(F)(F)(F)F [1-butyl-3-methylimidazolium hexafluorophosphate] + COCCOC
Details	refractive index
[3], x1 = 1	1.4089

[4], x1 = 1
Details	mass density [kg/m3]
298.15 K	1367.88
308.15 K	1359.33
318.15 K	1350.87

CCCCn1cc[n+](C)c1.F[P-](F)(F)(F)(F)F [1-butyl-3-methylimidazolium hexafluorophosphate] + COCCOCCOC
Details	refractive index
[3], x1 = 1	1.4058

[4], x1 = 1
Details	mass density [kg/m3]
298.15 K	1367.88
308.15 K	1359.33
318.15 K	1350.87

COCCOCCOC [2,5,8-trioxanonane]
[1]
Details	mass density [kg/m3]
298.15 K	939.1
308.15 K	929.6
318.15 K	919.3

Details	refractive index
[2]	1.4058

COCCOCCOC [2,5,8-trioxanonane] + CCCCn1cc[n+](C)c1.F[P-](F)(F)(F)(F)F
[3]
Details	refractive index
x2 = 0	1.4058
x2 = 0.0039	1.4063
x2 = 0.0076	1.4065
x2 = 0.0127	1.407
x2 = 0.0304	1.4081
x2 = 0.0505	1.4092
x2 = 0.1003	1.4113
x2 = 0.1617	1.4141
x2 = 0.207	1.4149
x2 = 0.3024	1.4148
x2 = 0.4018	1.4142
x2 = 0.5023	1.4138
x2 = 0.5623	1.4123
x2 = 0.7197	1.4098
x2 = 0.9477	1.4094
x2 = 0.9842	1.4089

mass density [kg/m3], [4]
Details	298.15 K	308.15 K	318.15 K
x2 = 0	939.1	929.6	919.3
x2 = 0.0039	942.16	932.57	922.34
x2 = 0.0076	945.03	935.37	925.2
x2 = 0.0127	948.97	939.22	929.13
x2 = 0.0304	962.27	952.3	942.43
x2 = 0.0505	976.74	966.73	957.03
x2 = 0.1003	1010.23	1000.46	990.93
x2 = 0.1617	1047.81	1038.53	1028.98
x2 = 0.207	1073.6	1064.59	1055.02
x2 = 0.3024	1124.55	1115.44	1106.04
x2 = 0.4018	1173.96	1164.58	1155.65
x2 = 0.5023	1219.47	1210.5	1202.05
x2 = 0.5623	1243.6	1235.27	1226.97
x2 = 0.7197	1292.24	1286.05	1277.69
x2 = 0.9477	1345.16	1336.93	1328.47
x2 = 0.9842	1359.24	1351.31	1342.85
x2 = 0.9952	1365.36	1356.87	1348.47

COCCO [2-methoxyethan-1-ol]
[1]
Details	mass density [kg/m3]
298.15 K	960.05
308.15 K	950.81
318.15 K	941.45

Details	refractive index
[2]	1.4004

COCCO [2-methoxyethan-1-ol] + CCCCn1cc[n+](C)c1.F[P-](F)(F)(F)(F)F
Details	refractive index
[3], x2 = 0	1.4004

[4], x2 = 0
Details	mass density [kg/m3]
298.15 K	960.05
308.15 K	950.81
318.15 K	941.45

From the NIST ThermoML archive (doi:10.1016/j.jct.2007.06.002)
